# From patent publication US6107069A, “Recombinant kynurenine-3-hydroxylase enzyme and process for its preparation” (priority 1996, dated 2000)
# Legend:
# glycine modulatory site = conditions: cited from earlier work
# brain [1] = conditions: cited from earlier work
# rat kyn-3-OHase = molecular target: T1, rat kyn-3-OHase (Rattus norvegicus, UniProt O88867); assay: Inhibition of rat kyn-3-OHase expressed in Xenopus laevis oocytes; assay type: biochemical; conditions: homogenates of oocytes injected with the clone, 50 μM L-kyn
# T1 construct: encodes a deduced protein of 478 amino acid residues; expressed in transfected cells; host or cells: Xenopus laevis oocytes injected with cRNA of the cloned rat kidney cDNA (homogenate)
# Source text: Kyn-3-OHase activity was quantified by the conversion of L-kyn to 3-OH-Kyn.
# kyn-3-OHase = conditions: systemic administration; cited from earlier work
# brain [2] = conditions: peripherally formed; cited from earlier work
# [3] = system: excitatory amino acid receptor; conditions: sites normally activated by glutamate and aspartate; cited from earlier work
# rats = conditions: administration to rats; cited from earlier work
# T1 sequence (O88867 whole entry): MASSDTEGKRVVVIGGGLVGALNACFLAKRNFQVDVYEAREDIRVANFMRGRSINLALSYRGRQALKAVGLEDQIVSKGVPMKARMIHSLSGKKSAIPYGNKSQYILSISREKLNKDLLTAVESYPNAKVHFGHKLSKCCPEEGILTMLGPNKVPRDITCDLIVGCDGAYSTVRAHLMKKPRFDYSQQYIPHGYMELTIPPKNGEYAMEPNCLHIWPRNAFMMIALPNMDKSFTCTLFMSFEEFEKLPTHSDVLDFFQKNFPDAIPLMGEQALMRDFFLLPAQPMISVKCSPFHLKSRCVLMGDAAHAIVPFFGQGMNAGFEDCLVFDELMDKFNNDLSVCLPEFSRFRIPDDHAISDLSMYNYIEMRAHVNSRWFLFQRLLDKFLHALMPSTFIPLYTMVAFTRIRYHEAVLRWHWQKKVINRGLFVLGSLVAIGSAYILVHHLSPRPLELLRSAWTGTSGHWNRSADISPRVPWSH
compound,measurement,setting,value
"O=C(O)c1cc(=O)c2ccccc2[nH]1 [KYNA, kynurenic acid]",affinity to the glycine modulatory site,glycine modulatory site,particularly high affinity
same,excitatory amino acid receptor antagonism,glycine modulatory site,effective excitatory amino acid receptor antagonist
same,properties when applied directly into the brain,brain [1],anticonvulsant and neuroprotective properties
"NC(CC(=O)c1ccc(Cl)c(Cl)c1)C(=O)O (racemic) [FCE 28833A, (R,S)-3,4-dichlorobenzoylalanine]",IC50,rat kyn-3-OHase,0.29 µM
same,endogenous KYNA levels in rat brain tissue,kyn-3-OHase,dose-dependent elevation
same,endogenous kynurenine levels in rat brain tissue,kyn-3-OHase,dose-dependent elevation
Nc1c(O)cccc1C(=O)O [3-hydroxyanthranilic acid],entry into the brain,brain [2],enters the brain very poorly
"O=C(O)c1cccnc1C(=O)O [QUIN, quinolinic acid]",activity at excitatory amino acid receptor sites,[3],agonist
same,convulsions,rats,caused convulsions
